Experimental data as given in patent US20100303758A1, “Novel Glucocorticoid Receptor Agonists” (priority 2009, published 2010).

What was measured:
[1] = biological target: T1, human GR (Homo sapiens, UniProt P04150); assay: GR agonist potency, MMTV-luciferase reporter in SW1353 cells; assay type: cell-based; settings: human chondrosarcoma cell-line SW1353 stably transfected with MMTV-luciferase reporter; approx. 18 hours; data as percentage of 1 μM dexamethasone positive control
T1 construct: SW1353 naturally expresses human GR; endogenous in cells; host or cells: human chondrosarcoma cell-line SW1353 stably transfected with an MMTV-luciferase reporter construct
T1 sequence (P04150 1-777): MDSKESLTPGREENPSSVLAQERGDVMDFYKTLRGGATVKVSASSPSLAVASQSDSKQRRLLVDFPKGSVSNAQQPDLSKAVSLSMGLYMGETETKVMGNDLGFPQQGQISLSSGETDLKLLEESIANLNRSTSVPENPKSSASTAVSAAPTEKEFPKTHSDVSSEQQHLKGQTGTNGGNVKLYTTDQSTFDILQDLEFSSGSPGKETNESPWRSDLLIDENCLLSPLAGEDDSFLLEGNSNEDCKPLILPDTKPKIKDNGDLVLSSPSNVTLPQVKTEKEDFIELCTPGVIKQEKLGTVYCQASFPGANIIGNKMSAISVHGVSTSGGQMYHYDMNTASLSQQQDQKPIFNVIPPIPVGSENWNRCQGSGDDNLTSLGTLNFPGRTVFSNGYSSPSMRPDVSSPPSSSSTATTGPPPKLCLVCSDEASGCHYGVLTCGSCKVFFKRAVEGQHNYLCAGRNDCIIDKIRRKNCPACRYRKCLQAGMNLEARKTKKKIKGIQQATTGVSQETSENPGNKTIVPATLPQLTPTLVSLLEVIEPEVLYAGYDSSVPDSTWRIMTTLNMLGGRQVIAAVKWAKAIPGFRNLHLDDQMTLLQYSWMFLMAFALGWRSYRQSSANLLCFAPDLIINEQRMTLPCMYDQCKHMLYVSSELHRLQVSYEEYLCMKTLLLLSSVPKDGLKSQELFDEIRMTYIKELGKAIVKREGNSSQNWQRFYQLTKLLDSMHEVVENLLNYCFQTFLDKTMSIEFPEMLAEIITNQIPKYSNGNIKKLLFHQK
Method: Glucococorticoid receptor (GR) agonist potency was determined in the human chondrosarcoma cell-line SW1353 stably transfected with an MMTV-luciferase reporter construct. SW1353 naturally expresses human GR, which on binding a glucocorticoid agonist activates glucocorticoid response elements within the MMTV promoter, driving expression of the luciferase gene.
Frozen SW1353 cells were revived in DMEM medium, without sodium pyruvate or phenol red, supplemented with 2 mM L-glutamine, 1 μg/ml insulin, 2 mg/ml lactalbumin hydrosylate and 0.5 μg/ml ascorbate. Cells were seeded at approximately 5000 cells/well (35 μl/well) in 384-well clear bottom, tissue culture treated plates. Steroid dose-response dilutions were prepared in steroid diluent (PBS containing 2.5% (v/v) DMSO and 0.05% (v/v) pluronic detergent) and 5 μl added to each well. The volume was made up to 50 μl per well with steroid diluent. Positive control wells contained 1 μM dexamethasone. Plates were incubated for approximately 18 hours at 37° C. in an air/5% CO2 atmosphere in a humidified incubator before Britelite reagent (10 μl; Perkin-Elmer) was added to each well. Each plate was incubated for 2 minutes in the dark and luminescence quantified using a LJL Biosystems Analyst luminometer. Data for test compounds (expressed as percentage of the dexamethasone positive control) were used to construct dose response curves from which EC50 values were estimated.

[2] = Inhibition of TNF-α release from LPS stimulated isolated human PBMC; assay type: cell-based; settings: Homo sapiens, PBMC, read-out: IC50 (nM) for inhibition of TNF-α release
Method: The anti-inflammatory activity of the compounds against human leukocytes in vitro was also evaluated by determining inhibition of tumour necrosis factor-α (TNF-α) release from lipopolysaccharide (LPS) stimulated isolated human peripheral mononuclear cells (PBMC).
Peripheral venous blood from healthy, non-medicated donors was collected using ethylenediaminetetraacetic acid (EDTA) as the anti-coagulant. For PBMC preparation, samples of blood were diluted 1:1 with sterile phosphate buffered saline and then separated using ACCUSPIN™ System-Histopaque®-1077 tubes (Sigma-Aldrich, St Louis, Mo.), centrifuged at 400 g for 35 minutes. Buffy coat cells were removed into PBS, centrifuged at 200 g for 10 minutes and re-suspended in PBMC assay buffer (Hanks Balanced Salt Solution, 0.28% [w/v] 4-[2-hydroxyethyl]-1-piperazineethanesulfonic acid [HEPES], 0.01% [w/v] low-endotoxin bovine serum albumin [BSA]. A differential white cell count was performed and PBMC's diluted to 1×10^6 lymphocytes per ml in PBMC assay buffer.
Test compounds were dissolved in DMSO and diluted in PBMC assay buffer (final DMSO concentration 1%) to cover an appropriate concentration range, e.g 0.001 nM to 10000 nM. Samples of test compound solution or vehicle (20 μl) were added into 96-well tissue culture treated plates (Corning) and PBMC (160 μl) added to each well. The assay mixtures were incubated at 37° C. for 1 h in a humidified incubator containing an atmosphere of air supplemented with 5% CO2 before adding LPS (20 μl of 100 ng/ml for PBMC). Plates were returned to the incubator for a further 18 hours, and then centrifuged before recovery of samples of supernatant. TNF-α in the samples was determined using an enzyme-linked immunosorbent assay (ELISA) (Invitrogen kit no CHC-1754; Invitrogen Carlsbad, Calif.) and following the manufacturers instructions. Dose response curves were constructed from which IC50 values were calculated.

Question: Which results are given for `CSc1cccc(Sc2ccc(C(=O)O[C@]3(C(=O)OCF)[C@H](C)C[C@H]4[C@@H]5C[C@H](F)C6=CC(=O)C=C[C@]6(C)[C@@]5(F)[C@@H](O)C[C@@]43C)cc2)c1` [Example 53]?
Answer: EC50 [1]: 11.8 nM; IC50 [2]: 0.086 nM

Question: For `C[C@]12C=CC(=O)C=C1CC[C@H]1[C@@H]3CC[C@](OC(=O)c4ccc(Oc5ccccc5)c(O)c4)(C(=O)OCC#N)[C@@]3(C)C[C@H](O)[C@@]12F` [Example 33, cyanomethyl(11beta,17alpha)-9-fluoro-11-hydroxy-17-[(3-hydroxy-4-phenoxybenzoyl)oxy]-3-oxoandrosta-1,4-diene-17-carboxylate], which EC50 [1] is on record?
Answer: Its EC50 is 68.3 nM.

Question: And the IC50 [2]?
Answer: The IC50 was 0.212 nM.

Question: For `C[C@]12C=CC(=O)C=C1[C@@H](F)C[C@H]1[C@@H]3CC[C@](OC(=O)c4ccc(Cc5ccccc5)cc4)(C(=O)OCC#N)[C@@]3(C)C[C@H](O)[C@@]12F` [Example 1, cyanomethyl(6alpha,11beta,17alpha)-17-[(4-benzylbenzoyl)oxy]-6,9-difluoro-11-hydroxy-3-oxoandrosta-1,4-diene-17-carboxylate], which EC50 [1] is on record?
Answer: Its EC50 is 22.3 nM.

Question: What about the IC50 [2] of the same molecule?
Answer: Its IC50 is 0.095 nM.

Question: For `C[C@]12C=CC(=O)C=C1CC[C@H]1[C@@H]3CC[C@](OC(=O)c4ccc(OCc5ccccc5)cc4)(C(=O)CO)[C@@]3(C)C[C@H](O)[C@@]12F` [Example 32, (11beta)-9-fluoro-11,21-dihydroxy-3,20-dioxopregna-1,4-dien-17-yl 4-(benzyloxy)benzoate], which EC50 [1] is on record?
Answer: The EC50 was 36 nM.

Question: And the IC50 [2]?
Answer: The IC50 was 0.506 nM.

Question: What does the source list for `C[C@]12C=CC(=O)C=C1CC[C@H]1[C@@H]3CC[C@](OC(=O)c4ccc(Oc5ccc(O)cc5)cc4)(C(=O)OCC#N)[C@@]3(C)C[C@H](O)[C@@]12F` [Example 16, cyanomethyl (11beta,17alpha)-9-fluoro-11-hydroxy-17-{[4-(4-hydroxyphenoxy)benzoyl]oxy}-3-oxoandrosta-1,4-diene-17-carboxylate]?
Answer: EC50 [1]: 24 nM; IC50 [2]: 0.067 nM

Question: With `C[C@]12C=CC(=O)C=C1[C@@H](F)C[C@H]1[C@@H]3CC[C@](OC(=O)c4ccc(SCc5ccc(O)cc5)cc4)(C(=O)OCC#N)[C@@]3(C)C[C@H](O)[C@@]12F` [Example 6, cyanomethyl (6alpha,11beta,17alpha)-6,9-difluoro-11-hydroxy-17-({4-[(4-hydroxybenzyl)thio]benzoyl}oxy)-3-oxoandrosta-1,4-diene-17-carboxylate] as the molecule, how does the EC50 [1] read?
Answer: Its EC50 is 23.5 nM.

Question: What about the IC50 [2] of the same molecule?
Answer: The IC50 was 0.207 nM.

Question: Which results are given for `C[C@]12C=CC(=O)C=C1CC[C@H]1[C@@H]3CC[C@](OC(=O)c4ccc(Oc5ccc(Cl)c(O)c5)cc4)(C(=O)SCF)[C@@]3(C)C[C@H](O)[C@@]12F` [Example 40, (11beta,17alpha)-9-fluoro-17-{[(fluoromethyl)thio]carbonyl}-11-hydroxy-3-oxoandrosta-1,4-dien-17-yl 4-(4-chloro-3-hydroxyphenoxy)benzoate]?
Answer: EC50 [1]: 31.2 nM; IC50 [2]: 0.053 nM

Question: Which EC50 [1] does the source give for `C[C@]12C=CC(=O)C=C1CC[C@H]1[C@@H]3CC[C@](OC(=O)c4ccc(Oc5ccccc5)cc4O)(C(=O)OCC#N)[C@@]3(C)C[C@H](O)[C@@]12F` [Example 21, cyanomethyl(11beta,17alpha)-9-fluoro-11-hydroxy-17-[(2-hydroxy-4-phenoxybenzoyl)oxy]-3-oxoandrosta-1,4-diene-17-carboxylate] here?
Answer: Its EC50 is 49 nM.

Question: And the IC50 [2]?
Answer: Its IC50 is 0.656 nM.

Question: With `CSc1cccc(Sc2ccc(C(=O)O[C@]3(C(=O)OCC#N)CC[C@H]4[C@@H]5CCC6=CC(=O)C=C[C@]6(C)[C@@]5(F)[C@@H](O)C[C@@]43C)cc2)c1` [Example 10, cyanomethyl (11beta,17alpha)-9-fluoro-11-hydroxy-17-[(4-{[3-(methylthio)-phenyl]thio}benzoyl)oxy]-3-oxoandrosta-1,4-diene-17-carboxylate] as the molecule, how does the EC50 [1] read?
Answer: The EC50 was 62.1 nM.

Question: And the IC50 [2]?
Answer: The IC50 was 0.826 nM.

Question: Which EC50 [1] does the source give for `C[C@]12C=CC(=O)C=C1CC[C@H]1[C@@H]3CC[C@](OC(=O)c4ccc(Sc5ccccc5O)cc4)(C(=O)OCC#N)[C@@]3(C)C[C@H](O)[C@@]12F` [Example 35, cyanomethyl (11beta,17alpha)-9-fluoro-11-hydroxy-17-({4-[(2-hydroxyphenyl)thio]benzoyl}oxy)-3-oxoandrosta-1,4-diene-17-carboxylate] here?
Answer: The EC50 was 75.2 nM.

Question: What about the IC50 [2] of the same molecule?
Answer: Its IC50 is 0.099 nM.

Question: For `C[C@]12C=CC(=O)C=C1CC[C@H]1[C@@H]3CC[C@](OC(=O)c4ccc(Sc5ccc(O)c(Cl)c5)cc4)(C(=O)SCC#N)[C@@]3(C)C[C@H](O)[C@@]12F` [Example 13, (11beta,17alpha)-17-{[(cyanomethyl)thio]carbonyl}-9-fluoro-11-hydroxy-3-oxoandrosta-1,4-dien-17-yl 4-[(3-chloro-4-hydroxyphenyl)thio]benzoate], which EC50 [1] is on record?
Answer: Its EC50 is 80.9 nM.

Question: And the IC50 [2]?
Answer: Its IC50 is 0.799 nM.

Question: For `C[C@]12C=CC(=O)C=C1CC[C@H]1[C@@H]3CC[C@](OC(=O)c4ccc(Sc5ccccc5)cc4)(C(=O)SCF)[C@@]3(C)C[C@H](O)[C@@]12F` [Example 24, (11beta,17alpha)-9-fluoro-17-{[(fluoromethyl)thio]carbonyl}-11-hydroxy-3-oxoandrosta-1,4-dien-17-yl 4-(phenylthio)benzoate], which EC50 [1] is on record?
Answer: The EC50 was 25.8 nM.

Question: And the IC50 [2]?
Answer: Its IC50 is 0.117 nM.

Question: Which EC50 [1] does the source give for `C[C@]12C=CC(=O)C=C1[C@@H](F)C[C@H]1[C@@H]3CC[C@](OC(=O)c4ccc(-c5ccccc5)cc4)(C(=O)OCC#N)[C@@]3(C)C[C@H](O)[C@@]12F` [Example 2, Cyanomethyl(6alpha,11beta,17alpha)-17-[(biphenyl-4-ylcarbonyl)oxy]-6,9-difluoro-11-hydroxy-3-oxoandrosta-1,4-diene-17-carboxylate] here?
Answer: The EC50 was 115 nM.

Question: What about the IC50 [2] of the same molecule?
Answer: Its IC50 is 0.373 nM.

Question: Which EC50 [1] does the source give for `C[C@]12C=CC(=O)C=C1CC[C@H]1[C@@H]3CC[C@](OC(=O)c4ccc(Sc5ccccc5)cc4)(C(=O)SCC#N)[C@@]3(C)C[C@H](O)[C@@]12F` [Example 28, (11beta,17alpha)-17-{[(cyanomethyl)thio]carbonyl}-9-fluoro-11-hydroxy-3-oxoandrosta-1,4-dien-17-yl 4-(phenylthio)benzoate] here?
Answer: Its EC50 is 37.3 nM.

Question: What about the IC50 [2] of the same molecule?
Answer: Its IC50 is 0.231 nM.

Question: Which results are given for `C[C@]12C=CC(=O)C=C1CC[C@H]1[C@@H]3CC[C@](OC(=O)c4ccc(Sc5ccc(O)c(Cl)c5)cc4)(C(=O)SCF)[C@@]3(C)C[C@H](O)[C@@]12F` [Example 27, (11beta,17alpha)-9-fluoro-17-[((fluoromethyl)thio]carbonyl)-11-hydroxy-3-oxoandrosta-1,4-dien-17-yl 4-[(3-chloro-4-hydroxyphenyl)thio]benzoate]?
Answer: EC50 [1]: 43.3 nM; IC50 [2]: 0.326 nM
